Experimental data reported in patent US20170137473A1, “FLUOROGEN ACTIVATING AND SHIFTING TAG (FAST)” (PARIS SCIENCES ET LETTRE - QUARTIER LATIN, priority 2014, published 2017).

What was measured:
HeLa cells = experiment: LIVE/DEAD viability assay (calceinAM, EthD1) of HeLa cells; format: cell-based; conditions: incubated 5 h at 5, 10 and 20 μM; concentrations used for imaging
Procedure: Cell viability was tested by using calceinAM and EthD1 (LIVE/DEAD® viability/cytotoxicity assay kit). CalceinAM is a cell-permeant profluorophore cleaved by intracellular esterases releasing the green fluorescent polyanionic calcein in live cells. EthD1 (Ethidium homodimer 1) is a non cell-permeant nucleic acid red fluorescent stain that enters only cells with damaged membranes and undergoes a fluorescence enhancement upon binding to nucleic acids, thereby producing a bright red fluorescence in dead cells. Control experiments with HeLa cells non-incubated with dye (top left, live control) or incubated for 1 h with 1% hydrogen peroxyde (top right, dead control) are shown. Cell fluorescence was evaluated by confocal microscopy.

zebrafish embryos = experiment: Fitness of zebrafish embryos incubated with HMBR during development; format: in vivo; conditions: incubation from 50% epiboly to 24 hpf; data not shown
[1] = tested on: wild-type bacteria, yeast and mammalian cells; experiment: Fluorescence background of fluorogen in wild-type cells (flow cytometry, confocal); format: cell-based
Procedure: (§1) Flow cytometry analysis was performed on an Accuri C6 (BD Biosciences). Confocal micrographs were acquired on a Zeiss LSM 710 Laser Scanning Microscope equipped with a Plan Apochromat 63×/1.4 NA oil immersion objective. ZEN software was used to collect the data. Images were analyzed with Image J. Spinning-disk confocal micrographs were acquired on a Nikon Eclipse Ti microscope equipped with a 4×/0.15 N.A objective and a coolSnap HQ2/CDDcamera (Princeton Instrument). Metamorph premier 7.6 software (Molecular Devices) was used to collect the data.
(§2) Labeling of Y-FAST with HBR and HMBR in cells was then analyzed by flow cytometry in three different expression systems: yeast, E. coli and mammalian cells (HeLa cells). The fluorescence was compared to wild-type cells or cells expressing wild-type PYP. […] The performance and selectivity of Y-FAST labeling in mammalian cells, yeast and bacteria was furthermore confirmed by confocal microscopy (FIG. 14d and FIGS. 15 c to f and FIG. 16).

wild-type PYP = target: T1, wild-type PYP (Halorhodospira halophila, UniProt P16113, C69G); experiment: Fluorogen labeling of cells expressing wild-type PYP; format: cell-based
T1 construct: fusion partner differs by host: Aga2p (yeast surface display, pAG14); His-tag-ENLYFQG (E. coli, pET28a); expressed in transfected cells
T1 sequence (P16113 whole entry C69G, the tested form may be a part): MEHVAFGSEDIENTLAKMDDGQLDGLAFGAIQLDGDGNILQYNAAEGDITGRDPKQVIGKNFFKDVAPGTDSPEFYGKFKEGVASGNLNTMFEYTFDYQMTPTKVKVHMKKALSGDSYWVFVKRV
Procedure: as §1, §2

Y-FAST [2] = target: T2, Y-FAST (Halorhodospira halophila, UniProt P16113, C69G/D97P/F96I/M100R/Q99S/T101G/T95M/Y94W/Y98T); experiment: Labeling of Y-FAST in living cells (yeast, E. coli, HeLa) by flow cytometry; format: cell-based
T2 construct: expressed in transfected cells; host or cells: HeLa cells, transiently transfected (pAG96, pIRES vector)
T2 sequence (P16113 whole entry C69G/Y94W/T95M/F96I/D97P/Y98T/Q99S/M100R/T101G): as the sequence (P16113 whole entry C69G, the tested form may be a part) above, with Y94W, T95M, F96I, D97P, Y98T, Q99S, M100R, T101G counted along it
Procedure: as §1, §2

Y-FAST [3] = target: T2, Y-FAST; format: cell-based
Procedure: FIG. 21 is a set of graphs and images showing that Y-FAST fluorescence can be switched on and off by addition and withdrawal of the fluorogenic ligand. (a,b) HeLa cells expressing mCherry-Y-FAST were grown in a microfluidic channel and repeatedly incubated with HMBR-containing culture medium for 20 s and HMBR-free culture medium for 40 s. A multifunctional fluidic controller enabled several cycles of labeling/unlabeling. […] (a) Confocal timelapse showing two cycles of labeling/unlabeling (Ex/Em 488/493-575 nm). (b) Temporal evolution of the cell fluorescence upon addition (+) and removal (−) of HMBR. (c) Confocal micrographs of live HeLa cells expressing Dronpa-NLS (nucleus) and lyn11-Y-FAST (membrane) showing sequential imaging of nuclear Dronpa and membrane-anchored Y-FAST thanks to sequential on/off labeling of Y-FAST intercalated with on/off photoswitching of Dronpa (Ex/Em 488/493-797 nm). […] Scale bars 10 μm.
FIG. 22 is a set of graphs and images showing that Y-FAST enables the control of the density of fluorescent labeling independently of the expression level. […] Data represents mean±SD (n=15).
A rapid prototyping technique has been used for the device fabrication. A digital cutting machine (Graphtec, CE6000) was used to produce a 0.5 mm wide microfluidic channel in a 0.5 mm thick silicone layer, which was supported by a 50 μm thick plastic film. After removing the plastic film and oxygen plasma treatment, the silicone layer was bonded to a 5 mm thick layer of polydimethylsiloxane (PDMS) which was prepared by casting a mixture of A and B components of RTV 615 (GE, France) at a 10:1 w/w ratio on a flat silicon wafer and curing it at 80° C. for 2 h. Then, inlet and outlet holes were punched with a metal tube for connections. Afterward, the silicone-PDMS complex was bonded to a 160 μm thick cover slide after oxygen plasma treatment. Finally, the whole device was put in a 80° C. oven for 10 min. Before cell seeding, the device was sterilized under UV exposure for more than 30 min. […]

SMILES: Cc1cc(/C=C2\SC(=S)NC2=O)ccc1O [HMBR, (Z)-5-(4-hydroxy-3-methylbenzylidene)-2-thioxo-1,3-thiazolidin-4-one]
- toxicity for HeLa cells (HeLa cells): non-toxic
- toxicity for zebrafish embryos (mortality, development) (zebrafish embryos): did not induce any mortality or perturbation in the development
- fluorescence background in wild-type cells [1]: no or negligible fluorescence background
- binding to wild-type PYP (wild-type PYP): do not bind
- fluorescent labeling of Y-FAST in living cells, comparison (Y-FAST [2]): outperforms HBR
- time of labeling in cells (Y-FAST [3]; 5 μM HMBR, microfluidic channel): within about ten seconds
- concentration sufficient for full labeling in cells (Y-FAST [3]; HeLa cells expressing mCherry-Y-FAST): 1 µM
- cell permeability (Y-FAST [3]; inferred from labeling time in HeLa cells): good cell permeability
